# Measurements: patent US20240415800A1, “DOPA AND CAFFEIC ACID ANALOGS AS NOVEL GCPII INHIBITORS” (The Johns Hopkins University, priority 2021, published 2024)
# Several values for one entry are separate records, joined by “and”; a condition that tells them apart may be missing. Equal values may be shown once. Entries after “also recorded” stand apart in the source; their conditions may differ. Read-outs that look alike come from different tables or passages of the source.
# What was measured:
# [1] = Pharmacokinetics of D-DOPA in mouse plasma and brain (IV, PO, IN; Example 1); assay type: in vivo, CD1 mice; settings: for Kp: brain/plasma, read-out: AUCBrain/Plasma (brain penetration index)
# [2] = Solubility of D-DOPA in intranasal dosing vehicle; assay type: physicochemical
# [3] = target: T1, Recombinant human GCPII enzyme (Homo sapiens (Human), UniProt Q04609); experiment: biochemical
# [4] = target: T1, Recombinant human GCPII enzyme; experiment: GCPII activity assay (IC50, radiolabelled NAAG hydrolysis); assay type: biochemical; settings: for GCPII inhibitory potency (in words): SAR of L-DOPA analogs
# [5] = Time-dependent PK of D-DOPA with or without sodium benzoate (Example 2); assay type: in vivo, CD-1 mice
# Experimental: All of the formulations were freshly prepared prior to the dosing. […] Tissue and plasma collection were carried out as described above. […] Van […] et al., 2020; Wang et al., 2015. While D-/L-DOPA required derivatization with acetic anhydride, caffeic acid was analyzed using a single step protein precipitation method. […] Plasma and brain tissue samples were processed by matching the dilutions of calibration standards of the respective tissue. […] The solutions were vortexed for 15 secs and then allowed to sit at room temperature for 45 mins. These mixtures were vortexed again for 10 sec and centrifuged at 10,000 g for 10 mins to collect the supernatant. A 50 μL aliquot of the supernatant was transferred to 250 μL polypropylene autosampler vials sealed with Teflon caps. 2 μL of the sample was injected into the LC/MS/MS system for analysis. Chromatographic analysis was performed using Thermo Scientific Vanquish UPLC system consisting of an analytical pump and an autosampler coupled with a […] spectrometer. For all analytes, the mobile phase used for the chromatographic separation composed of 0.1% formic acid in acetonitrile and 0.1% formic acid in water delivered as a gradient while pumping a flow rate of 0.400 mL/min. […] The analyte was monitored using ThermoScientific […] triple-quadrupole mass-spectrometric detector equipped with an electrospray interface, and operated in negative ion mode. The instrument was controlled by Thermo Scientific Xcalibur (version 4.2.47) software. […] Plasma concentrations (nmol/mL) and brain tissue concentrations (nmol/g) were determined and plots of mean plasma or brain concentrations versus time were constructed.
# [6] = target: T1, Recombinant human GCPII enzyme; settings: NAAG saturation, D-DOPA 0-400 nM
# [7] = Mouse two-point oral pharmacokinetic screening; parameters: species or system CD-1 mice; settings: in vivo, 50 mg/kg
# Experimental: Male CD-1 mice between 25-30 g were obtained from Harlan and maintained on a 12 h light-dark cycle with ad libitum access to food and water. […] All of the formulations were freshly prepared prior to the dosing. […] For the collection of plasma and brain tissue, animals were euthanized with CO2, and blood samples were collected in heparinized microtubes by cardiac puncture. Brains were dissected and immediately flash frozen (-80° C.). […] Van […] et al., 2020; Wang et al., 2015. While D-/L-DOPA required derivatization with acetic anhydride, caffeic acid was analyzed using a single step protein precipitation method. […] Plasma and brain tissue samples were processed by matching the dilutions of calibration standards of the respective tissue. […] The solutions were vortexed for 15 secs and then allowed to sit at room temperature for 45 mins. These mixtures were vortexed again for 10 sec and centrifuged at 10,000 g for 10 mins to collect the supernatant. A 50 μL aliquot of the supernatant was transferred to 250 μL polypropylene autosampler vials sealed with Teflon caps. 2 μL of the sample was injected into the LC/MS/MS system for analysis. […] Then, 2 μL of the sample was analyzed using LC/MS/MS system as mentioned above. Plasma concentrations (nmol/mL) and brain tissue concentrations (nmol/g) were determined and plots of mean plasma or brain concentrations versus time were constructed.
# [8] = In vitro metabolic stability in mouse plasma and brain homogenate; assay type: in vitro ADME; settings: 10 μM, 1 h
# Experimental: Zimmermann et al., 2018. For the brain homogenates, washed tissues were diluted 10-fold in 0.1 M potassium phosphate buffer and homogenized using a probe sonicator. Crude homogenate and plasma were aliquoted to 1 mL and spiked with a final assay concentration of 10 μM of the respective catechol followed by incubation in an orbital shaker at 37° C. for 1 h (in triplicate). An aliquot from each incubated homogenate was quenched with three volumes of acetonitrile containing the internal standard (IS; losartan: […]) at predetermined time points (0, 30, 60 min). Samples were vortex-mixed for 30 secs and centrifuged at 10,000×g for 10 min at 4° C.
# Disappearance of respective catechol was monitored on a Dionex Ultimate 3000 ultra-high-performance LC system coupled with Q Exactive Focus orbitrap mass spectrometer (Thermo Fisher Scientific Inc., Waltham MA). The separation of analytes was achieved using the Agilent Eclipse Plus column (100×2.1 mm i.d.; maintained at 35° C.) packed with a 1.8 μm C18 stationary phase. The mobile phase consisted of 0.1% formic acid in water and 0.1% formic acid in acetonitrile. Pumps were operated at a flow rate of 0.4 mL/min for 9 min using gradient elution. […] Quantification of the compounds was performed in the full-scan mode (from m/z 50 to 1600) by comparing t=0 samples with t=30- and 60-min samples.
# [9] = target: GCPII activity in the brain (Mus musculus (Mouse), UniProt O35409); experiment: GCPII target engagement: GCPII activity in brain after dosing; assay type: in vivo, CD1 mouse
# [10] = PO 50 mg/kg + sodium benzoate 400 mg/kg IP, brain
# [11] = Table 2-1, human recombinant GCPII
# [12] = Table 1, catechol scaffolds for GCPII inhibition
# T1 sequence (Q04609 whole entry): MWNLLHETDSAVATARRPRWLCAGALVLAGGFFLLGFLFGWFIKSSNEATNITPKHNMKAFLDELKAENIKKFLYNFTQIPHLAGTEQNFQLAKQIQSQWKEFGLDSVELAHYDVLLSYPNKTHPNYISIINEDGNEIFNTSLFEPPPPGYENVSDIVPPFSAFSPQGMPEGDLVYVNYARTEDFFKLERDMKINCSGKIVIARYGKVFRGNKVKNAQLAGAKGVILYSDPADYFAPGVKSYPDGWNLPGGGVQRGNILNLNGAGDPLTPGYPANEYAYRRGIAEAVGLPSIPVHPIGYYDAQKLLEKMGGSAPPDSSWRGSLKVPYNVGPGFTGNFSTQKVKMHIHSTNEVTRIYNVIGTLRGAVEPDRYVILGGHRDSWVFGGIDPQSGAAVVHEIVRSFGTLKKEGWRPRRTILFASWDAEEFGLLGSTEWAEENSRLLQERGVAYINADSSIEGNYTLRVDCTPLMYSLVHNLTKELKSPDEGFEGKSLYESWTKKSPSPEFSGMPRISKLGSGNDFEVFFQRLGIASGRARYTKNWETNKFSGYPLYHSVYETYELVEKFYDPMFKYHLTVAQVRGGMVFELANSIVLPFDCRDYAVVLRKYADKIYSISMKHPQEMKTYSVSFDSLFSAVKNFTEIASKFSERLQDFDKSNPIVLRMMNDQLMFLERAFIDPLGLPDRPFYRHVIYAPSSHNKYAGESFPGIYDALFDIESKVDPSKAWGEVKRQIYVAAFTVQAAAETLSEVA
# Sequence of GCPII activity in the brain (O35409 whole entry): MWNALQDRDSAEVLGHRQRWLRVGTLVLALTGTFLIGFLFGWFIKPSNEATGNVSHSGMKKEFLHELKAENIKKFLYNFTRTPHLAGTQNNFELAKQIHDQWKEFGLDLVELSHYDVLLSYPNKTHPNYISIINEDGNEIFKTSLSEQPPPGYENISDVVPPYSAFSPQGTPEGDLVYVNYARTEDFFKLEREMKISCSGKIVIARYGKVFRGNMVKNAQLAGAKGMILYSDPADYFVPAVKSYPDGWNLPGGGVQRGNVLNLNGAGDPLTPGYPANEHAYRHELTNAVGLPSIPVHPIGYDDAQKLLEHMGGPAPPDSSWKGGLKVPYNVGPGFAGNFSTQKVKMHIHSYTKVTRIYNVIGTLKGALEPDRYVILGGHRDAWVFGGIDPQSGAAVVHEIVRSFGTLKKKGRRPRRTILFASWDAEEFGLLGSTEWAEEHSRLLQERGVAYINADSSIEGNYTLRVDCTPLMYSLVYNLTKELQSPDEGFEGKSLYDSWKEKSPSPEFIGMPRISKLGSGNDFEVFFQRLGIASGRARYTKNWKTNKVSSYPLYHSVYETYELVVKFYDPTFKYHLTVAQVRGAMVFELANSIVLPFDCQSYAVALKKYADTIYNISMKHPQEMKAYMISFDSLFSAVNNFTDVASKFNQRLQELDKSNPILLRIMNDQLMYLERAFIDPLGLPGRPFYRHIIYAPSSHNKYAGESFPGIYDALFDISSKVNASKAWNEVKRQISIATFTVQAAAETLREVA
compound,measurement,setting,value
"N[C@H](Cc1ccc(O)c(O)c1)C(=O)O [D-DOPA, D-3,4-dihydroxyphenylalanine]",Kp,"[1]; CD1, mouse, other: intranasal, 3.4 mg/kg, IN 3.4 mg/kg",0.051
same,Kp,"[1]; CD1, mouse, po, 30 mg/kg, PO 30 mg/kg",< 0.05
same,Cmax,"[1]; CD1, mouse, inhaled or intranasal, IN 3.4 mg/kg, plasma, read-out: Cmax",4.45 ± 0.971 µM
same,AUC0-t,"[1]; CD1, mouse, plasma, inhaled or intranasal, 3.4 mg/kg, IN 3.4 mg/kg, plasma, read-out: AUC0-t",2.7 ± 0.508 µM·h
same,AUC0-t,"[1]; CD1, mouse, plasma, iv, 10 mg/kg, IV 10 mg/kg, plasma, read-out: AUC0-t",30.5 ± 2.04 µM·h
same,Tmax,"[1]; CD1, mouse, plasma, iv, 10 mg/kg, IV 10 mg/kg, plasma, read-out: Tmax",≤ 0.0833 h
same,Tmax,"[1]; CD1, mouse, plasma, iv, 10 mg/kg, IV 10 mg/kg, plasma, read-out: Tmax (h)",0.0833 h
same,bioavailability,"[1]; CD1, mouse, plasma, PO 30 mg/kg vs IV 10 mg/kg, read-out: Bioavailability (% F)",36%
same,Cmax,"[1]; CD1, mouse, PO 30 mg/kg, plasma, read-out: Cmax",43.1 ± 2.58 µM
same,AUC0-t,"[1]; IN 3.4 mg/kg, brain",0.139 ± 0.0268 nmol·h/g
same,Cmax,"[1]; IN 3.4 mg/kg, brain",0.102 ± 0.00823 nmol/g
same,Tmax,"[1]; IN 3.4 mg/kg, plasma",0.250 h
same,AUC0-t,"[1]; PO 30 mg/kg, brain",1.09 ± 0.103 nmol·h/g
same,Cmax,"[1]; PO 30 mg/kg, brain",0.472 ± 0.124 nmol/g
same,AUC0-t,"[1]; PO 30 mg/kg, plasma",32.92 ± 0.731 µM·h
same,Cmax,"[1]; mouse, IV 10 mg/kg, plasma, CD1 mice, read-out: Cmax",61.1 ± 5.09 µM
same,solubility in vehicle,[2],poor solubility
same,Ki,[3],~400 nM
same,IC50,[4]; GCPII,200 nM
same,GCPII inhibitory potency (in words),[4],sub-micromolar potencies
same,Kp,"[5]; CD-1, mouse, brain/plasma, PO 50 mg/kg + sodium benzoate 400 mg/kg IP, read-out: brain penetration index",0.03
same,AUC,"[5]; CD-1, mouse, plasma, iv, 10 mg/kg, IV 10 mg/kg, plasma, read-out: AUCIV",30.5 µM·h
same,AUC,"[5]; CD-1, mouse, plasma, oral, PO 50 mg/kg + sodium benzoate 400 mg/kg IP, plasma, read-out: AUCPlasma",185 µM·h
same,AUC,"[5]; CD-1, mouse, plasma, po, 50 mg/kg, PO 50 mg/kg + sodium benzoate 400 mg/kg IP, plasma, read-out: AUCPlasma",185 µM·h
same,AUC,"[5]; CD-1, mouse, plasma, po, 50 mg/kg, PO 50 mg/kg monotherapy, plasma, read-out: AUCPO-plasma",72.7 µM·h
same,Cmax,"[5]; CD-1, mouse, PO 50 mg/kg monotherapy, brain, read-out: Cmax",1.74 µM
same,time brain levels stayed >IC50 value of 0.2 μM,[5]; PO 50 mg/kg + sodium benzoate 400 mg/kg IP,over 3 h
same,AUCBrain,[5]; [10],5.48 nmol·h/g
same,Cmax,[5]; [10],3.2 nmol/g and 3.20 nmol/g
same,Cmax,"[5]; PO 50 mg/kg + sodium benzoate 400 mg/kg IP, plasma, read-out: Cmax",151 µM
same,time brain concentrations were >IC50,[5]; PO 50 mg/kg monotherapy,up to 1 h
same,AUCPO-Brain,"[5]; PO 50 mg/kg monotherapy, brain",2.42 nmol·h/g
same,Cmax,"[5]; PO 50 mg/kg monotherapy, brain",1.74 nmol/g
same,Tmax,"[5]; PO 50 mg/kg monotherapy, brain",30 min
same,oral bioavailability (AUCPO/IV),[5]; PO 50 mg/kg vs IV 10 mg/kg,47.7%
same,enhancement in both plasma and brain exposures,[5]; combination with sodium benzoate vs D-DOPA alone,> 200%
same,mode of inhibition,[6],"noncompetitive, allosteric inhibitor of GCPII"
same,plasma and brain exposure (in words),[7],higher plasma and brain exposure
same,metabolic stability (in words),[8],good metabolic stability; also recorded: superior in vitro stability
same,GCPII activity in brain (cortex),"[9]; PO 30 mg/kg, 1 h post dose",significant inhibition of GCPII activity
same,GCPII activity in brain,"[9]; PO 50 mg/kg + sodium benzoate 400 mg/kg IP, 30 min",significantly outperformed D-DOPA alone; also recorded: significant inhibition of GCPII activity; also recorded: significantly outperformed D-DOPA mono-therapy
same,GCPII activity in brain,"[9]; PO 50 mg/kg monotherapy, 30 min, vs untreated",significant inhibition of GCPII activity
same,GCPII activity in brain,[9]; intranasal dosing,insufficient exposures to the brain to affect GCP II activity
"NCCc1ccc(O)c(O)c1 [Compound 2-7, Dopamine]",GCPII inhibitory potency (in words),[4],loss of potency
same,IC50,[4]; [11],> 100000 nM
CC(=O)N[C@@H](Cc1ccc(O)c(O)c1)C(=O)O [Compound 2-6],GCPII inhibitory potency (in words),[4],loss of potency
same,IC50,[4]; [11],20000 nM
"N[C@@H](Cc1ccc(O)cc1)C(=O)O [Compound 2-2, Tyr]",GCPII inhibitory potency (in words),[4],substantial loss of potency
same,IC50,[4]; [11],100000 nM
N[C@@H](Cc1ccc(O)c(O)c1)C(=O)O [L-DOPA],GCPII inhibitory potency (in words),[4],sub-micromolar potencies; also recorded: submicromolar inhibitor of GCPII
same,IC50,[4]; [12],400 nM
same,IC50,[4]; [11],600 nM
O=C(O)CCc1ccc(O)c(O)c1 [Compound 2-8],IC50,[4]; [11],4000 nM
same,decrease in inhibitory potency,[4]; relative to L-DOPA,6.7 fold
C[C@](N)(Cc1ccc(O)c(O)c1)C(=O)O [Compound 2-5],GCPII inhibitory potency (in words),[4],loss of potency
same,IC50,[4]; [11],> 100000 nM
COc1ccc(C[C@H](N)C(=O)O)cc1OC [Compound 2-3],GCPII inhibitory potency (in words),[4],substantial loss of potency
same,IC50,[4]; [11],> 100000 nM
NC(Cc1ccc(=O)n(O)c1)C(=O)O (stereo not drawn) [Compound 2-4],GCPII inhibitory potency (in words),[4],complete loss of potency
same,IC50,[4]; [11],> 100000 nM
O=C(O)/C=C/c1ccc(O)c(O)c1 [Caffeic acid],IC50,[4]; GCPII,300 nM
same,GCPII inhibitory potency (in words),[4],sub-micromolar potencies
same,IC50,[4]; [12],100 nM
